Measured values taken from US9512128B2 (BAYER CROPSCIENCE AG, priority 2012, dated 2016).
Read-outs that look alike come from different tables or passages of the source.

What was measured:
[1] = log P by HPLC on reversed-phase columns (C 18), EEC directive 79/831 Annex V.A8; type: physicochemical; details: for logP[a]: method [a]; for logP[b]: method [b]; for chromatographic logP: reversed-phase C18 HPLC column
Outline: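 Measured by reversed-phase C18 HPLC (LC-MS) with a linear 10→95% acetonitrile gradient. Acidic: pH 2.7, 0.1% formic acid. Neutral: pH 7.8, 0.001 M ammonium bicarbonate.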

[2] = test system: southern root-knot nematode (Meloidogyne incognita); assay: Meloidogyne incognita test (MELGIN); type: in vivo; details: application rate 20 ppm, after 14 days, lettuce
Experimental: 5. Meloidogyne incognita Test (MELGIN) • Solvent: 125.0 parts by weight of acetone To prepare a suitable active compound preparation, 1 part by weight of active compound is mixed with the stated amount of solvent and the concentrate is diluted with water to the desired concentration. Vessels are filled with sand, active compound solution, an egg/larvae suspension of the southern root-knot nematode (Meloidogyne incognita) and lettuce seeds. The lettuce seeds germinate and the plants develop. On the roots, galls are formed. After 14 days, the nematicidal effect in % is determined by the formation of galls. 100% means that no galls have been found; 0% means that the number of galls on the treated plants corresponds to the untreated control.

[3] = test system: greenhouse red spider mite (Tetranychus urticae); assay: Tetranychus urticae spray test, OP-resistant (TETRUR); type: in vivo; details: application rate 500 g/ha, after 6 days, bean leaf discs
Experimental: 4. Tetranychus urticae Spray Test, OP-Resistant (TETRUR)
• Solvents: 78.0 parts by weight of acetone • 1.5 part by weight of dimethylformamide • Emulsifier: 0.5 part by weight of alkylaryl polyglycol ether
To produce a suitable preparation of active compound, 1 part by weight of active compound is mixed with the stated amounts of solvents and emulsifier, and the concentrate is diluted with emulsifier-containing water to the desired concentration.
Discs of bean leaves (Phaseolus vulgaris) which are infested by all stages of the greenhouse red spider mite (Tetranychus urticae) are sprayed with an active compound preparation of the desired concentration.
After 6 days, the efficacy in % is determined. 100% means that all of the spider mites have been killed; 0% means that none of the spider mites have been killed.

SMILES | logP[a] [1] | logP[b] [1] | nematicidal effect in % (formation of galls) [2] | efficacy in % (spider mites killed) [3] | chromatographic logP ([1]; pH 2.7, acidic range, pH 2.7, 0.1% aqueous formic acid / acetonitrile, read-out: log P[a]) | chromatographic logP ([1]; pH 2.7, method [a], read-out: logP[a]) | chromatographic logP ([1]; pH 7.8, method [b], read-out: logP[b]) | chromatographic logP ([1]; pH 7.8, neutral range, pH 7.8, 0.001 molar aqueous ammonium bicarbonate / acetonitrile, read-out: log P[b])
Cc1cc(F)c(-n2c(C(F)(F)F)nc3c(cnn3CC(F)(F)F)c2=O)cc1SCC(F)(F)F [Compound 19] | 4.20 | 4.10 | 90% | – | – | – | – | –
Cc1cc(F)c(-n2c(C)nc3cnn(C(C)C)c3c2=O)cc1SCC(F)(F)F [Compound 162] | – | – | 90% | 100% | – | – | – | –
Cc1cc(C)c([S+]([O-])CC(F)(F)F)cc1-n1cnc2sccc2c1=O (stereo not shown) [Compound 97] | 2.15 | 2.11 | 90% | – | – | – | – | –
CC(C)(C)c1snc2ncn(-c3ccc(Cl)c(SCC(F)(F)F)c3)c(=O)c12 [Compound 117] | 4.06 | 3.97 | – | 90% | – | – | – | –
Cc1cc(C)c(-n2cnc3ncsc3c2=O)cc1SCC(F)(F)F [Compound 76] | 2.62 | 2.59 | – | 90% | – | – | – | –
Cc1cc(F)c(-n2nnc3c(cnn3C)c2=O)cc1SCC(F)(F)F [Compound 119, 3-{2-Fluoro-4-methyl-5-[(2,2,2-trifluoroethyl)sulphanyl]phenyl}-7-methyl-3,7-dihydro-4H-pyrazolo[3,4-d][1,2,3]triazin-4-one] | – | – | – | 90% | 3.16 | 3.16 | 3.13 | 3.13
Cc1cc(F)c(-n2cnc3ccsc3c2=O)cc1[S+]([O-])CC(F)(F)F (stereo not shown) [Compound 113] | 2.35 | 2.31 | 90% | – | – | – | – | –
Cc1cc(C)c(-n2cnc3sccc3c2=O)cc1SCC(F)(F)F [Compound 91] | 3.34 | 3.25 | – | 100% | – | – | – | –
Cc1nn(C)c2ncn(-c3ccc(C(F)(F)F)c([S+]([O-])CC(F)(F)F)c3)c(=O)c12 (racemic) [Compound 32] | 2.39 | 2.34 | 90% | – | – | – | – | –
Cc1cc(F)c(-n2cnc3c(cnn3CC(F)(F)F)c2=O)cc1[S+]([O-])CC(F)(F)F (racemic) [Compound 18] | 2.34 | 2.33 | 90% | – | – | – | – | –
Cc1cc(F)c(-n2c(C(F)(F)F)nc3nn(C)cc3c2=O)cc1[S+]([O-])CC(F)(F)F (stereo not shown) [Compound 43] | – | – | 90% | – | – | – | – | –
Cc1cc(F)c(-n2cnc3ccsc3c2=O)cc1SCC(F)(F)F [Compound 108] | 3.01 | 2.90 | 90% | – | – | – | – | –
Cc1cc(F)c(-n2cnc3cnn(C)c3c2=O)cc1SCC(F)(F)F [Compound 38] | 2.76 | 2.76 | – | 90% | – | – | – | –
CCc1nc2cnn(C)c2c(=O)n1-c1cc(SCC(F)(F)F)c(C)cc1F [Compound 146] | – | – | 90% | – | – | – | – | –
Cc1ccc(-n2cnc3nsc(C(C)(C)C)c3c2=O)cc1SCC(F)(F)F [Compound 116] | 4.05 | 3.96 | – | 90% | – | – | – | –
Cc1cc(F)c(-n2c(C)nc3cnn(C)c3c2=O)cc1SCC(F)(F)F [Compound 39] | 2.94 | 2.87 | – | 90% | – | – | – | –

SMILES | logP[a] [1] | logP[b] [1] | nematicidal effect in % (formation of galls) [2] | efficacy in % (spider mites killed) [3] | chromatographic logP ([1]; pH 2.7, acidic range, pH 2.7, 0.1% aqueous formic acid / acetonitrile, read-out: log P[a]) | chromatographic logP ([1]; pH 2.7, method [a], read-out: logP[a]) | chromatographic logP ([1]; pH 7.8, method [b], read-out: logP[b]) | chromatographic logP ([1]; pH 7.8, neutral range, pH 7.8, 0.001 molar aqueous ammonium bicarbonate / acetonitrile, read-out: log P[b])
Cn1ncc2c(=O)n(-c3ccc(C#N)c([S+]([O-])CC(F)(F)F)c3)cnc21 (racemic) [Compound 26] | 1.51 | 1.56 | – | 90% | – | – | – | –
Cc1cc(F)c(-n2c(C)nc3scnc3c2=O)cc1SCC(F)(F)F [Compound 64] | 2.72 | 2.70 | 90% | – | – | – | – | –
Cc1c2c(=O)n(-c3ccc(Cl)c([S+]([O-])CC(F)(F)F)c3)cnc2nn1C (racemic) [Compound 49] | 1.78 | 1.75 | 90% | – | – | – | – | –
O=c1c2ncsc2ncn1-c1cc(SCC(F)(F)F)c(Cl)cc1Cl [Compound 63] | 2.83 | 2.77 | 90% | – | – | – | – | –
O=c1c2ccsc2ncn1-c1ccc(Cl)c([S+]([O-])CC(F)(F)F)c1 (stereo not shown) [Compound 87] | 2.20 | 2.17 | 100% | – | – | – | – | –
Cc1cc(C)c([S+]([O-])CC(F)(F)F)cc1-n1cnc2scnc2c1=O (stereo not shown) [Compound 66] | 1.6 | 1.62 | – | 90% | – | – | – | –
Cc1cc(F)c(-n2cnc3c(Cl)csc3c2=O)cc1[S+]([O-])CC(F)(F)F (stereo not shown) [Compound 114] | 2.43 | 2.38 | 90% | – | – | – | – | –
Cc1cc(F)c(-n2c(C)nc3c(cnn3CC(F)(F)F)c2=O)cc1SCC(F)(F)F [Compound 20] | 3.50 | 3.44 | – | 90% | – | – | – | –
CCn1cnc2c(=O)n(-c3cc([S+]([O-])CC(F)(F)F)c(C)cc3F)cnc21 (racemic) [Compound 54] | 1.60 | 1.59 | – | 100% | – | – | – | –
Cc1c2c(=O)n(-c3ccc(C(F)(F)F)c(SCC(F)(F)F)c3)cnc2nn1C [Compound 45] | 2.70 | 2.63 | 80% | – | – | – | – | –
Cc1cc(F)c(-n2cnc3sccc3c2=O)cc1SCC(F)(F)F [Compound 92] | 3.22 | 3.14 | – | 100% | – | – | – | –
Cc1cc(F)c(-n2c(C)nc3cnn(CC4CC4)c3c2=O)cc1SCC(F)(F)F [Compound 168] | – | – | 90% | – | – | – | – | –
Cc1nc2c(=O)n(-c3cc(SCC(F)(F)F)c(C)cc3F)cnc2s1 [Compound 70] | 2.80 | 2.74 | 90% | – | – | – | – | –
Cc1cc(F)c(-n2c(C)nc3scnc3c2=O)cc1[S+]([O-])CC(F)(F)F (stereo not shown) [Compound 68] | 1.72 | 1.70 | – | 90% | – | – | – | –
Cc1cc(F)c(-n2cnc3c(ncn3C)c2=O)cc1SCC(F)(F)F [Compound 52] | 2.17 | 2.11 | – | 90% | – | – | – | –
